Source: article PMC8647499, “Preclinical evaluation of strasseriolides A–D, potent antiplasmodial macrolides isolated from Strasseria geniculata CF-247,251” (Malaria Journal, 2021)
Values joined by “and” are separate entries in the source; they are usually repeats but may differ in a detail not shown here. Equal values may be shown once. Read-outs that look alike come from different tables or passages of the source.

How the values were obtained:
[1] = system: transgenic P. berghei line 676m1cl1 (PbGFP-Luccon), ANKA strain; test: In vivo efficacy in P. berghei infected mice (luciferase activity); design: species or system Plasmodium berghei in Swiss Webster female mice; settings: chloroquine 20 mg/kg; for Parasitaemia (Luminescence arbitrary units), Average ± SD: 4 days from 48 h post-infection
Experimental: In vivo efficacy experiments were performed at the Anti-infectives Screening Core Services facility of the New York University School of Medicine. The transgenic P. berghei line 676m1cl1 parasite (PbGFP-Luccon) expressing the fusion GFP (mutant 3) and firefly luciferase (LucIAV) proteins generated in the reference clone of ANKA strain cl15cy1 was used. Swiss Webster female mice were infected with transgenic P. berghei line 676m1cl1 (PbGFP-Luccon) ANKA-infected 10³ red blood cells. Treatment was then started 48 h post-parasite infection by i.p. dosage of 22 mg/kg of strasseriolide D and 50 mg/kg of strasseriolide C. Vehicle only (PBS 2% methylcellulose, 0.5% Tween 80) and 20 mg/kg chloroquine were used as negative and positive controls. The infected mice were treated for four days, after which luciferase activity of the parasites was quantified 5 to 10 min after i.p. injection of 150 mg/kg D-Luciferin Potassium-salt (Goldbio) dissolved in PBS using an IVIS® Lumina II imager on the fifth day.
The Genedata Screener online application (Genedata AG, Basel, Switzerland) was used to compute IC50 values. The Smart Fit strategy with Hill model was selected as the choice for curve fitting. Where applicable, data are presented as mean ± standard deviation (SD). In Fig. 3, the significant differences between the vehicle controls and test compounds were calculated by the Student’s t test.

[2] = Metabolic stability assay in human liver microsomes; assay type: in vitro ADME; settings: for half-life: pH 7.4, 1 mg/mL protein; for Clearance Category: ranked by CLint
Experimental: Pretreatment of the 96-well ABgen-0765 reaction plates was the same as previously described above. Two microlitres (2 µL) of compounds (previously dissolved in DMSO) were pre-incubated with 98 µL of cofactor/buffer solution (0.1 M phosphate buffer of pH 7.4, 100 mM K3PO4, 3.3 mM MgCl2, 3.3 mM G6P, 1.3 mM NADPH, and 0.4 u/mL G6PDH) at 37 °C for 10 min. The reactions were then initiated by the addition of 100 µL of HLM solution (at final protein concentration of 1 mg/mL), after which they were stopped at pre-determined incubation times of 0, 10, 15, 30, 45 and 60 min by adding 90 µL acetonitrile containing internal LC–MS–MS standards and shaking at 180 Hz. The samples were centrifuged to sediment the protein precipitates and the supernatants were analysed by LC–MS–MS as previously described above. The integration of each analyte (the […]) and internal standard peak area was performed by the Analyst® software version 1.5.2 and used to calculate the percentage of remaining compound at each incubation time. The natural logarithm of the percentage of the remaining parent compound was plotted against the incubation time and used to calculate the half-life by the following equation:
Half-life (T ½ min) = 0.693/k, where k is the slope of a plot of the natural log of the percentage parent compound remaining vs. time.
The intrinsic clearance (CLint) was determined by the equation: CLint
=Ln2/t1/2min∗volumeincubationmL/microsomalproteinmg∗45MPPGL1500ghumanliver/70kghumanbodyweightj
Units for CLint were expressed as mL/min/mg microsomal protein and MPPGL = mg microsomal protein per gram liver.

[3] = Quantification of compounds in mice plasma by LC-MS-MS and PK parameters after i.v. injection; assay type: in vivo; settings: for Plasma Conc. @Tinitial: mice, Tinitial 0.5 h (A, C), 0.13 h (B), 1.5 h (D)
Experimental: (§1) Three Balb/C mice (6–8 weeks old) were intravenously injected with 25 mg/kg of strasseriolide D dissolved in 200 µL of vehicle (0.5%HPMC, 0.5% Tween 80 and 0.5% Benzyl alcohol in water). Blood samples were collected by pricking the […] on the leg of each mouse at time points 1.5 (T 1.5 h), 5 (T 5 h) and 24 h (T 24 h). From the harvested blood, 50 µL plasma were prepared for all the samples and stored at -80 °C until needed. A previously developed LC–MS–MS method (see supporting information) was used to determine the plasma concentration of strasseriolide D as described below.
Ten millimolar (10 mM) DMSO stocks of strasseriolide D (the test compound) and strasseriolide A (used as internal standard,) were prepared. From the strasseriolide D stock, a 59.7 µM (27,000 ppb) working concentration was made in DMSO and an aliquot of this was serially diluted (½) in reconstitution solution (1:1 of acetonitrile: H2O with 0.1% formic acid) to create a six-point calibration curve in triplicate. Three different quality control (QC) concentrations of strasseriolide D at 59.7, 0.74, and 0.25 µM (i.e. 27,000 ppb, 333 ppb and 111 ppb) were also prepared in duplicate. From the strasseriolide A (internal standard) stock, a 6.2 µM (2700 ppb) working concentration was prepared in DMSO.
Blank mouse plasma (prepared from non-injected mouse) was retrieved from the freezer (− 80 °C) and kept on ice to thaw. The sample was vortexed adequately and 15 µL aliquots transferred into 0.7 mL Eppendorf tubes after which 35 µL of Milli-Q water were added and vortexed. Triplicate sets of the diluted plasma were then respectively spiked with 2 uL of each concentration of the calibration curves of strasseriolide D. Another triplicate set of the diluted plasma was spiked with 2 µL of each concentration of the standard QC solutions. All the above samples were also spiked with 2 µL of strasseriolide A (the internal standard)). To serve as blank samples, a fresh triplicate set of diluted plasma were spiked with 4 µL of DMSO. Non-matrix samples were also prepared by spiking 100 µL aliquots of reconstitution solution with 2 µL of the standard QC solutions and 2 µL of internal standard.
Fifteen microlitres (15 µL) plasma from the various time points of the strasseriolide D-injected mice, were respectively transferred into 0.7 mL Eppendorf tubes. To each sample, 37 µL of Milli-Q water were added, vortexed and spiked with 2 µL of strasseriolide A (internal standard). Two hundred microlitres (200 µL) of ice-cold acetonitrile were added to all of the matrix (plasma-containing) samples and centrifuged at 13,300 rpm for 15 min at 4 °C. Subsequently, 180 µL aliquots were carefully transferred (without disturbing the protein precipitate) from each tube into clean HPLC vials and evaporated to dryness in an EZ2 Genevac at room temperature. The dried samples were then reconstituted in 40 µL of reconstitution solution by vortexing. The samples were placed in an auto-sampler drawer for LC–MS–MS analysis and quantification of strasseriolide D (the test compound) in mice plasma.
(§2) Similar sample preparation and LC–MS–MS analysis were respectively performed for mice intravenously injected with strasseriolides A and C as test compounds and mice blood samples collected at 30 min (T 30 M), 2 h (T 2 h), 6 h (T 6 h) and 24 h (T 24 h). […] For strasseriolides A, B and C as test compounds; strasseriolides C, D and B were respectively used as internal standards. After LC–MS–MS analysis, the plasma concentration of compound vs. time data was determined for each strasseriolide.
116 Table S2. QC table used to calculate the precision and accuracy of the method.
Compound Expected No. Experimental STD % %
conc. in values mean conc. deviation CV Accuracy
118 (5) The mean recovery rate for the test compound (strasseriolide B) – this was calculated
119 to be 29 % by comparing the plasma QC peak area ratios at the established retention time […]

mice = test: In vivo toxicity in mice after i.v. injection
Experimental: as §1, §2
Animals were observed individually at 15, 30 and 60 min after dosing and periodically during the first 24 h for any clinical signs of toxicity or mortality. The toxicity evaluation was carried out by observing behaviour parameters, including the Grimace scale parameters. The mice were sacrificed, and the main organs were examined by visual inspection during autopsy.

[4] = system: Plasmodium falciparum strain 3D7 whole parasites; design: method as in PMID 32808790; settings: in vitro, read-out: IC50 against Plasmodium falciparum strain 3D7; cited from earlier work
HepG2 liver cells = system: HepG2 liver cells; design: method as in PMID 32808790; settings: cited from earlier work
[5] = Balb/C, mouse, in vivo, iv, 25 mg/kg
[6] = Balb/C, mouse, in vivo, iv, 25 mg/kg, 24 h
[7] = Balb/C, mouse, in vivo, iv, 25 mg/kg, Ave. Conc. in plasma

For `CCN(CC)CCCC(C)Nc1ccnc2cc(Cl)ccc12` (stereo not drawn) [Chloroquine, chloroquine, reference compound], the “Parasitaemia (Luminescence arbitrary units), Average ± SD” value ([1]; Table S7/Fig. 3A experiment: strasseriolide C 50 mg/kg i.p., read day 5, four replicates) was 0.00 Luminescence arbitrary units, the “Parasitaemia (Luminescence arbitrary units), single replicates” value ([1]; Table S7 experiment: strasseriolide C 50 mg/kg i.p., individual mice) was 0.00 Luminescence arbitrary units and the “Parasitaemia (Luminescence arbitrary units), Average ± SD” value ([1]; Table S8/Fig. 3B experiment: strasseriolide D 22 mg/kg i.p., read day 5, five replicates) was 3 × 10^3 Luminescence arbitrary units.

With `C/C1=C\[C@H](C)CCC(=O)/C(C)=C/[C@H](C)C[C@@H](C)CC[C@@H]([C@@H](C)C(=O)O)OC(=O)[C@@H](C)C1` [Strasseriolide A, strasseriolide A] the half-life [2] was 6.47 ± 1.05 min, the “Clearance Category” value [2] was “High” and the “AUC 0-t/0-inf_obs” value [3, 5] was 0.9738. The AUC(0-inf) [3, 5] was 510 ng·h/mL and 1.17 µM·h, the C0 [3, 5] was 378 ng/mL and 870 nM and the Clast_obs/Cmax [3, 5] was 0.009713. For the same molecule, the Cmax [3, 5] was 216 ng/mL and 498 nM, the MRT [3, 5] was 2.98 h and the MRT inf [3, 5] was 2.99 h. The Tmax [3, 5] was 0.5 h, the Vss_obs [3, 5] was 0.1465 (mg/kg)/(ng/ml) and the “Vz_obs (plasma distribution volume)” value [3, 5] was 312.4 L/kg. The k el [3, 5] was 4.36e-05 s⁻¹, the “Calc. Conc. in plasma, individual mice” value [3, 6] was under 2.1 ng/mL and the “Plasma Conc. @T24 h” value [3, 6] was under 4.8 nM. The concentration at 8 min ([3]; Balb/C, mouse, in vivo, iv, 25 mg/kg, 24 h, read-out: Calc. Conc. in plasma, individual mice) was under 0.00484 µM, the AUC(0-t) ([3]; Balb/C, mouse, in vivo, iv, 25 mg/kg, AUC 0-t) was 1.14 µM·h and 496 ng·h/mL and the AUC(0-t) ([3]; Balb/C, mouse, in vivo, iv, 25 mg/kg, AUC0−t) was 1.14 µM·h. The concentration at 0.5 h [3, 7] was 498 nM, the concentration at 2 h [3, 7] was 93.5 nM and the concentration at 6 h [3, 7] was 11.6 nM. The concentration at 24 h [3, 7] was under 4.84 nM, the concentration at 24 h ([3]; Balb/C, mouse, in vivo, iv, 25 mg/kg, Calc. Conc. in plasma, individual mice) was < 2.1 ng/mL and < 4.84 nM and the concentration at 24 h ([3]; Balb/C, mouse, in vivo, iv, 25 mg/kg, Plasma Conc. @T24 h) was under 4.8 nM. The half-life ([3]; Balb/C, mouse, in vivo, iv, 25 mg/kg, T1/2 (apparent terminal elimination half-life)) was 4.4 h, the half-life ([3]; Balb/C, mouse, in vivo, iv, 25 mg/kg, t1/2) was 4.41 h and the Cl_obs ([3]; mouse, in vivo, iv, 25 mg/kg) was 0.04907 (mg/kg)/(ng/ml)/h. The “in vivo toxicity / mortality in mice” value (mice; [6]) was “survived until 24 h post-i.v. injection”, the “in vivo toxicity / mortality in mice” value (mice; mouse, in vivo, iv, 25 mg/kg) was “non-toxic” and the IC50 [4] was 9.81 µM.

In the case of `C/C1=C\[C@H](C)CC[C@@H](O)/C(C)=C/[C@H](C)C[C@@H](C)CC[C@@H]([C@@H](C)C(=O)O)OC(=O)[C@@H](C)C1` [Strasseriolide B, strasseriolide B], the half-life [2] is listed as 8.7 ± 2.4 min, the “Clearance Category” value [2] is listed as “High” and the “in vitro toxicity against HepG2 liver cells” value (HepG2 liver cells) is listed as “no in vitro toxicity”. For the same molecule, the concentration at 8 min ([3]; Balb/C, mouse, in vivo, iv, 25 mg/kg, i.v. 25 mg/kg, T 8 minutes, read-out: Ave. Conc. in plasma) was 19.6 µM, the concentration at 8 min ([3]; Balb/C, mouse, in vivo, iv, 25 mg/kg, i.v. 25 mg/kg, T 8 minutes, read-out: Calc. Conc. in plasma, individual mice) was 8110 ng/mL and 18.6 µM and the “Calc. Conc. in plasma, individual mice” value ([3]; i.v. 25 mg/kg, T 8 minutes) was 9098.0 ng/mL. The “Calc. Conc. in plasma, individual mice” value ([3]; i.v. 25 mg/kg, T 8 minutes, listed as strasseriolide B) was 8419.0 ng/mL, the concentration at 8 min ([3]; i.v. 25 mg/kg, T 8 minutes, listed as strasseriolide B, read-out: Calc. Conc. in plasma, individual mice) was 19.3 µM and the concentration at 8 min ([3]; i.v. 25 mg/kg, T 8 minutes, read-out: Calc. Conc. in plasma, individual mice) was 20.9 µM. For the same molecule, the “Plasma Conc. @Tinitial” value ([3]; i.v. 25 mg/kg) was 19600 nM, the “Plasma Conc. @Tinitial” value ([3]; i.v. 25 mg/kg, listed as B*) was 19600 ± 1200 nM and the “time to death of all injected mice” value (mice; i.v. 25 mg/kg) was “*Only Tinitial and the Plasma Conc @ Tinitial were recorded as all the mice injected with this compound died under 8 min”. For the same molecule, the “in vivo toxicity / mortality in mice” value (mice; i.v. 25 mg/kg, three mice, observed 24 h) was “all died just under eight minutes post-i.v. injection”, the “in vivo toxicity / mortality in mice at lower dosages” value (mice; i.v. 10, 5 and 1 mg/Kg) was “all resulted in death of the mice injected” and the IC50 [4] was 0.013 µM.
